Source: US20240358848A1, “ANTITUMOR COMPOUND AND USE THEREOF” (priority 2021, published 2024)
Where two headings read alike, the source gives them in different places.

Test system: KPL-4 Cells
Test: Cell proliferation inhibition assay (CellTiter-Glo, 72 h)
Assay type: cell-based
Method: KPL-4 Cells in the logarithmic phase of growth were collected and re-suspended with fresh RPMI1640 complete cell culture medium, and adjusted to 2×10^4 cells/mL after cell counting. Cells were seeded into 96-well cell culture plates at 100 μL/well, and placed in a CO2 incubator (37° C., 5% CO2) overnight. In the next day, one of the cell culture plates were taken out, balanced to room temperature, and CellTiter-Glo reagent (Promega, USA), which was pre-balanced to room temperature and evenly mixed, was added into the plate at 100 μl/well. The plate was kept in dark for 30 min, and then luminescence value was read with a microplate reader (denoted as G0 value). The other cell culture plates were taken out and added with different concentrations of test compounds or DMSO (final concentration 0.5%) in corresponding wells. After incubated for 72 h in a CO2 incubator, the cell culture plates were balanced to room temperature and tested for cell viabilities using CellTiter-Glo reagent as described above (denoted as G3 value).
The cell proliferation rates were calculated using the following formula: Cell proliferation rate (%)=(mean of G3compound−mean of G0)/(mean of G3DMSO−mean of G0)×100.

[1] = KPL4, KPL-4, 72 h, read-out: GI50

| Compound | GI50 [1] | GI50 (KPL4, 72 h) |
| --- | --- | --- |
| CC[C@@]1(O)C(=O)OCc2c1cc1n(c2=S)Cc2c-1nc1cc(F)c(C)c3c1c2[C@H](NC(=O)CO)CC3 [Y] | 10.3 nM |  |
| CC[C@@]1(O)C(=O)OCc2c1cc1n(c2=S)Cc2c-1nc1cc(F)c(C)c3c1c2[C@@H](NC(=O)CO)CC3 [X] | 13.9 nM |  |
| CC[C@@]1(O)C(=O)OCc2c1cc1n(c2=O)Cc2c-1nc1cc(F)c(C)c3c1c2[C@@H](NC(=O)CO)CC3 [DXd, reference compound] |  | 72 nM |
